ChEMBL document CHEMBL5335794, “Discovery of novel multifunctional ligands targeting GABA transporters, butyrylcholinesterase, β-secretase, and amyloid β aggregation as potential treatment of Alzheimer's disease” (Eur J Med Chem, 2023)
Calls of active or inactive are those of the source. No cut-off for these calls is given here.

Experiments:
[1] = biological target: Amyloid-beta precursor protein (Homo sapiens) (UniProt P05067); experiment: Inhibition of amyloid beta42 (unknown origin) aggregation expressed in Escherichia coli BL21 (DE3) at 10 uM measured every 5 mins by ThT fluorescence based assay relative to control
[2] = biological target: T1, Sodium- and chloride-dependent GABA transporter 1 (Mus musculus, UniProt P31648); experiment: Inhibition of mouse GAT1 transfected in HEK293 cells assessed as reduction in [3H]-GABA uptake preincubated for 25 mins followed by [3H]-GABA addition and measured after 4 mins by liquid scintillation counting analysis; type: cell-based; conditions: read-out: pIC50 (converted)
[3] = biological target: T2, GABA transporter 2 (Mus musculus, UniProt P31651); experiment: Inhibition of mouse GAT2 transfected in HEK293 cells assessed as reduction in [3H]-GABA uptake preincubated for 25 mins followed by [3H]-GABA addition and measured after 10 mins by liquid scintillation counting analysis; type: cell-based; conditions: read-out: pIC50 (converted)
T2 sequence (P31651 whole entry): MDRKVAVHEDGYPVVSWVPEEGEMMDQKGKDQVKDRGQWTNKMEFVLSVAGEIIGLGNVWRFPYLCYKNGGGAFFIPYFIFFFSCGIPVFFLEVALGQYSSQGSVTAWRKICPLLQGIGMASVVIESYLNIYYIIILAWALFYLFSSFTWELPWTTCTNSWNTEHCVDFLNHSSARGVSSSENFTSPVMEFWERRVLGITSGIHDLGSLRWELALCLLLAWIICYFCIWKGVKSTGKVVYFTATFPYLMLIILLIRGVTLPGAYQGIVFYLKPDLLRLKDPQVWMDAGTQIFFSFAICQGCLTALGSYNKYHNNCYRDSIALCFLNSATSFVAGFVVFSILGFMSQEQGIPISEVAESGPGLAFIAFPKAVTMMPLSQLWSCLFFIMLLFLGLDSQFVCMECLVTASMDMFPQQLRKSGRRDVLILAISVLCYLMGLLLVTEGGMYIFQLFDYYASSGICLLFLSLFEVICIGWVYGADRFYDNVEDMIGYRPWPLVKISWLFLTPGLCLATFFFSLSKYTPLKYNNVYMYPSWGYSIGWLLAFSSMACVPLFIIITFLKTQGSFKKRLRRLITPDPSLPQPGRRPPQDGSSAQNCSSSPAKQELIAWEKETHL

[4] = Inhibition of mouse GAT3 transfected in HEK293 cells assessed as reduction in [3H]-GABA uptake preincubated for 25 mins followed by [3H]-GABA addition and measured after 4 mins by liquid scintillation counting analysis; type: cell-based; conditions: HEK293; read-out: pIC50 (converted)
[5] = biological target: T3, GABA transporter 4 (Mus musculus, UniProt P31650); experiment: Inhibition of mouse GAT4 transfected in HEK293 cells assessed as reduction in [3H]-GABA uptake preincubated for 25 mins followed by [3H]-GABA addition and measured after 4 mins by liquid scintillation counting analysis; type: cell-based; conditions: read-out: pIC50 (converted)
T3 sequence (P31650 whole entry): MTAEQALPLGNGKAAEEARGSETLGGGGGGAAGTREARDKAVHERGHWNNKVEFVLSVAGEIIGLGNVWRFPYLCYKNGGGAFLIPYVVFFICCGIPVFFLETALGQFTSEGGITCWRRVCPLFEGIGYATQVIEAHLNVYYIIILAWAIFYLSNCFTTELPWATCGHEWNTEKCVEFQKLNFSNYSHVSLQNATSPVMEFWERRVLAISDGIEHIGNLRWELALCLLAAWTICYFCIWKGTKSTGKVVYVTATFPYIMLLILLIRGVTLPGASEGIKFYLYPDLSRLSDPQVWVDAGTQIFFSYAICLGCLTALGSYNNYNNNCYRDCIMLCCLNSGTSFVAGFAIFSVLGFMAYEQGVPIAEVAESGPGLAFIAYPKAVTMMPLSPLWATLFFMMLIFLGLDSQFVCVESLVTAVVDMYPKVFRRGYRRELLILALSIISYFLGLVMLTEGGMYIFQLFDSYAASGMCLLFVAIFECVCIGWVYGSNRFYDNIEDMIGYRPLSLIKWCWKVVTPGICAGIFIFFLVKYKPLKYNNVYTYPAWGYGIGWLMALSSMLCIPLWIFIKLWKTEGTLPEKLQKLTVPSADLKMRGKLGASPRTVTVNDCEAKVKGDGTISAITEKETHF

[6] = biological target: T1, Sodium- and chloride-dependent GABA transporter 1; experiment: Inhibition of NO 711 marker binding to mouse GAT1 by LC-ESI-MS/MS based competitive MS binding assay
[7] = biological target: Acetylcholinesterase (Electrophorus electricus) (UniProt O42275); experiment: Inhibition of electric eel AChE using acetylthiocholine iodide as substrate at 10 uM preincubated for 5 mins followed by substrate addition and measured after 5 mins by DTNB reagent based Ellman's method relative to control; conditions: time 10.0 min
[8] = biological target: Amyloid-beta precursor protein (Homo sapiens) (UniProt P05067); experiment: Inhibition of amyloid beta40 (unknown origin) aggregation at 10 uM measured every 5 mins by ThT fluorescence based assay relative to control
[9] = biological target: Amyloid-beta precursor protein (Homo sapiens) (UniProt P05067); experiment: Inhibition of soluble amyloid beta40 (unknown origin) aggregation at 10 uM measured after 24 hrs by ThT fluorescence based assay relative to control
[10] = biological target: Amyloid-beta precursor protein (Homo sapiens) (UniProt P05067); experiment: Inhibition of soluble amyloid beta40 (unknown origin) aggregation assessed as nucleation constant at 10 uM measured after 24 hrs by ThT fluorescence based assay (reference value: […] 10^-4/min)
[11] = biological target: Amyloid-beta precursor protein (Homo sapiens) (UniProt P05067); experiment: Inhibition of soluble amyloid beta40 (unknown origin) aggregation assessed as elongation constant at 10 uM measured after 24 hrs by ThT fluorescence based assay (reference value: […] /M/min)
[12] = biological target: Amyloid-beta precursor protein (Homo sapiens) (UniProt P05067); experiment: Inhibition of soluble amyloid beta40 (unknown origin) aggregation assessed as lag time of amyloid polymerization at 10 uM measured after 24 hrs by ThT fluorescence based assay (reference value: […] min)
[13] = biological target: Amyloid-beta precursor protein (Homo sapiens) (UniProt P05067); experiment: Inhibition of soluble amyloid beta40 (unknown origin) aggregation assessed as time of half-aggregation at 10 uM measured after 24 hrs by ThT fluorescence based assay (reference value: […] min)
[14] = biological target: Amyloid-beta precursor protein (Homo sapiens) (UniProt P05067); experiment: Inhibition of soluble amyloid beta40 (unknown origin) aggregation assessed as end time of amyloid polymerization at 10 uM measured after 24 hrs by ThT fluorescence based assay (reference value: […] min)
[15] = biological target: Amyloid-beta precursor protein (Homo sapiens) (UniProt P05067); experiment: Inhibition of soluble amyloid beta40 (unknown origin) aggregation assessed as fold reduction in nucleation ratio at 10 uM measured after 24 hrs by ThT fluorescence based assay
[16] = biological target: Amyloid-beta precursor protein (Homo sapiens) (UniProt P05067); experiment: Inhibition of soluble amyloid beta40 (unknown origin) aggregation assessed as inhibition of fibril elongation by measuring fold reduction in elongation ratio at 10 uM measured after 24 hrs by ThT fluorescence based assay
[17] = system: HEK293; experiment: Cytotoxicity against HEK293 cells assessed as reduction in cell viability at 0.1 to 1 uM incubated for 72 hrs by MTS assay; type: toxicity, cell-based; conditions: human, hek293, 72 h, dose 0.1-1 µM
[18] = system: HepG2; experiment: Cytotoxicity against human HepG2 cells assessed as reduction in cell viability at 0.1 to 1 uM incubated for 72 hrs by MTS assay; type: toxicity, cell-based; conditions: hepg2, 72 h, dose 0.1-1 µM
[19] = system: Mus musculus; experiment: (§1) Cognitive enhancing activity in Albino Swiss (CD-1) mouse model of scopolamine induced cognitive dysfunction and amnesia assessed as prolongation of step-through latency in acquisition phase at 30 mg/kg, ip pretreated for 30 mins followed by scopolamine administration and measured after 30 mins by passive avoidance test; type: functional, organism-based; conditions: time 60.0 min
[20] = system: Mus musculus; experiment: (§2) Cognitive enhancing activity in Albino Swiss (CD-1) mouse model of scopolamine induced cognitive dysfunction and amnesia assessed as prolongation of step-through latency in retention trail at 10 to 30 mg/kg, ip pretreated for 30 mins followed by scopolamine administration and measured after 30 mins by passive avoidance test; type: functional, organism-based; conditions: dose 10-30 mg/kg, time 60.0 min
[21] = system: Mus musculus; experiment: Cognitive enhancing activity in Albino Swiss (CD-1) mouse model of scopolamine induced memory deficits and amnesia assessed as increase in discrimination index at 30 mg/kg, ip pretreated for 30 mins followed by scopolamine administration and measured after 30 mins by Novel object recognition test; type: functional, organism-based; conditions: time 60.0 min
[22] = biological target: Cholinesterase (Equus caballus, UniProt P81908)
Description: Inhibition of equine serum BuChE using butyrylthiocholine iodide as substrate preincubated for 5 mins followed by substrate addition and measured after 5 mins by DTNB reagent based Ellman's method

[23] = biological target: Beta-secretase 1 (Homo sapiens, UniProt P56817)
[24] = biological target: T1, Sodium- and chloride-dependent GABA transporter 1; experiment: Inhibition of mouse GAT1 expressed in HEK293 cells assessed as reduction in [3H]-GABA uptake; type: cell-based
[25] = biological target: T4, GABA transporter 2 (Mus musculus) (UniProt P31651); experiment: Inhibition of mouse GAT2 transfected in HEK293 cells assessed as reduction in [3H]-GABA uptake by measuring residual activity at 100 uM relative to control; type: cell-based
T4 sequence (whole entry): T2 sequence (P31651 whole entry)

[26] = system: HEK293; experiment: Inhibition of mouse GAT3 transfected in HEK293 cells assessed as reduction in [3H]-GABA uptake by measuring residual activity at 100 uM relative to control; type: cell-based
[27] = biological target: T3, GABA transporter 4; experiment: Inhibition of mouse GAT4 transfected in HEK293 cells assessed as reduction in [3H]-GABA uptake; type: cell-based
[28] = biological target: Sodium- and chloride-dependent GABA transporter 1 (Mus musculus) (UniProt P31648); experiment: Inhibition of NO 711 marker binding to mouse GAT1 assessed as residual activity at 100 uM by LC-ESI-MS/MS based competitive MS binding assay relative to control
[29] = biological target: Cholinesterase (Equus caballus) (UniProt P81908); experiment: Mixed type inhibition of equine serum BuChE using varying concentrations of butyrylthiocholine iodide as substrate preincubated for 5 mins followed by substrate addition and measured after 5 mins by Ellman's method based Lineweaver-Burk plot analysis; conditions: time 10.0 min
[30] = biological target: Cholinesterase (Equus caballus) (UniProt P81908); experiment: Mixed type inhibition of equine serum BuChE using varying concentrations of butyrylthiocholine iodide as substrate preincubated for 5 mins followed by substrate addition and measured after 5 mins by Ellman's method based Cornish-Bowden plot analysis; conditions: time 10.0 min
[31] = system: Mus musculus; experiment: as §1, with “at 10” for “at 30”; type: functional, organism-based; conditions: time 60.0 min
[32] = system: Mus musculus; experiment: as §2, with “at” for “at 10 to”; type: functional, organism-based; conditions: time 60.0 min
[33] = system: Mus musculus; experiment: as §2, with “10” for “10 to 30”; type: functional, organism-based; conditions: time 60.0 min
[34] = biological target: T2, GABA transporter 2; experiment: Inhibition of mouse GAT2 transfected in HEK293 cells assessed as reduction in [3H]-GABA uptake; type: cell-based
[35] = Inhibition of mouse GAT3 transfected in HEK293 cells assessed as reduction in [3H]-GABA uptake; type: cell-based

Sequence of Amyloid-beta precursor protein (Homo sapiens) (P05067 whole entry): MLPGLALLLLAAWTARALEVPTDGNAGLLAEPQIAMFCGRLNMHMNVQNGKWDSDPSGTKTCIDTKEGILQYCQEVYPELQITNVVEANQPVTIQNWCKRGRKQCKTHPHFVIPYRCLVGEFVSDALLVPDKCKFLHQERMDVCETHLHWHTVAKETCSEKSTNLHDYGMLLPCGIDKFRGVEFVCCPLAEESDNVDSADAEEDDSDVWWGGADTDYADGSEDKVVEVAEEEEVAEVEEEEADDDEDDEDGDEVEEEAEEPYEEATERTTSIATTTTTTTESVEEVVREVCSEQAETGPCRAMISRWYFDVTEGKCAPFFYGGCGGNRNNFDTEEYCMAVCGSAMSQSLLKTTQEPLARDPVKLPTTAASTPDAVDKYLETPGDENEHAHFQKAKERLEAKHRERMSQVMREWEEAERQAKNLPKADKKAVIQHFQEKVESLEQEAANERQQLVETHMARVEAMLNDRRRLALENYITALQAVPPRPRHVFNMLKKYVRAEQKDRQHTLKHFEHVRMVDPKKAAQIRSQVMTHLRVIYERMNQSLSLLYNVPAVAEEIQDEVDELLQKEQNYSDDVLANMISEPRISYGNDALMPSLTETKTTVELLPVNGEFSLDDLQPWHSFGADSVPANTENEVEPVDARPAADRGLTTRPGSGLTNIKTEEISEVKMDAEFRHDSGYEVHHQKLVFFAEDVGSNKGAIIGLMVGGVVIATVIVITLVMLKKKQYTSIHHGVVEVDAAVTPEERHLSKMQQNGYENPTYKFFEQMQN
Sequence of Beta-secretase 1 (P56817 whole entry): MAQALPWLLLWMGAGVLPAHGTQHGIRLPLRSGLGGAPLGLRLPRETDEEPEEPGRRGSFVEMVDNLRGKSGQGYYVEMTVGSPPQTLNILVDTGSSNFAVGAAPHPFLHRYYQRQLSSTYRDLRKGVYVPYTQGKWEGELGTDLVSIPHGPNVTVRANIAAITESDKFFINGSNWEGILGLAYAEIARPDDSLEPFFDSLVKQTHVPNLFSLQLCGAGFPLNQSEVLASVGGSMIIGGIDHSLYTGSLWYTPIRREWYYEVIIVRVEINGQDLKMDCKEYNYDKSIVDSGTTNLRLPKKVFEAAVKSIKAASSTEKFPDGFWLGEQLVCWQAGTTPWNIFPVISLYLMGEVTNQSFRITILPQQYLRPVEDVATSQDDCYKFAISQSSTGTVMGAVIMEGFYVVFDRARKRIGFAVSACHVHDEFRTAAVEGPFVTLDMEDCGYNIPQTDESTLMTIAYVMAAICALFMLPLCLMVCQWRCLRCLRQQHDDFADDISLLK
Sequence of Cholinesterase (Equus caballus) (P81908 whole entry): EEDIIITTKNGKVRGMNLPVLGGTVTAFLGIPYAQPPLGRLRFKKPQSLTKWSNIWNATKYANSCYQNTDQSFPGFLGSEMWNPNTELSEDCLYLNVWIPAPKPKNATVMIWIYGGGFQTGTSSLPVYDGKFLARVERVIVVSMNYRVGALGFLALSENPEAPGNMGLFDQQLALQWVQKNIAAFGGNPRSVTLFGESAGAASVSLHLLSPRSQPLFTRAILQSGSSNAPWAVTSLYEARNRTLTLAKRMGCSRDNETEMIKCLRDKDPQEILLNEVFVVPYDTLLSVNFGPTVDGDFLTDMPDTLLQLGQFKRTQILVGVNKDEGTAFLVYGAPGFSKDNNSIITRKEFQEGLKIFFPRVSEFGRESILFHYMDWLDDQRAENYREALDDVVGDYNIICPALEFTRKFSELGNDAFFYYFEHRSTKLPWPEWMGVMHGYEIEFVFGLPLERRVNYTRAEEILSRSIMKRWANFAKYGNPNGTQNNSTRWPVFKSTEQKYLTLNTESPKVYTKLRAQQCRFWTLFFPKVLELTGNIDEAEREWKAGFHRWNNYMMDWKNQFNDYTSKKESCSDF
Sequence of Cholinesterase (P81908 whole entry): as above
Sequence of Acetylcholinesterase (Electrophorus electricus) (O42275 24-633 limits assumed): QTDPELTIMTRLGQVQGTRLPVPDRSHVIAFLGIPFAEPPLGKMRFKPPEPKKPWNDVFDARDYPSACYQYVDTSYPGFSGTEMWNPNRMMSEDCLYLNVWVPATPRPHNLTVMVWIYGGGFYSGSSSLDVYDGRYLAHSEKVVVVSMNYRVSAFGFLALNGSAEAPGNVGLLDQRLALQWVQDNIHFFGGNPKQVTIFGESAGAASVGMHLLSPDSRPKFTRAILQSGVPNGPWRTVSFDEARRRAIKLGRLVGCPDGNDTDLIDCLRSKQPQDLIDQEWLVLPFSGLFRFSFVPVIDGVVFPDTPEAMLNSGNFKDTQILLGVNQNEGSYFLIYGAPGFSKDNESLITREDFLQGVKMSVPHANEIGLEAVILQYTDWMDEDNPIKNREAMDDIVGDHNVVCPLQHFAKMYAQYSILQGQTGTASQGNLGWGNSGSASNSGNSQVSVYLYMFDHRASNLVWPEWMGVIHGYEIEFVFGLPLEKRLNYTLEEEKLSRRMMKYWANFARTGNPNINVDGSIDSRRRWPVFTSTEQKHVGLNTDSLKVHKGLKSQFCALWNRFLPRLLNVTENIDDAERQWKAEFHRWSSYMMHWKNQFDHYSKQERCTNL

Structure (SMILES) | inhibition [1] [%] | IC50 [2] [µM] | IC50 [3] [µM] | IC50 [4] [µM] | IC50 [5] [µM] | inhibition [7] [%] | inhibition [8] [%] | inhibition [9] [%] | K [10] | K [11] [M⁻¹ s⁻¹] | TIME [12] [h] | T1/2 [13] [h] | TIME [14] [h] | fold change (FC) [16] | Activity [17] | Activity [18] | Activity [21] | IC50 [22] [µM] | IC50 [23] [µM] | IC50 ([24]; read-out: IC50) [µM] | other results
CN(CCOCCN1c2ccccc2Sc2ccccc21)C(CCN)C(=O)NCc1ccc(Cl)cc1 (configuration not stated) | 34.6 | 9.77 | 12.3 | 6.31 | 12 | 42 | 98.5 | 85.5 | 4.04 10^-4/min | 74.1 | 2.91 | 4.68 | 6.46 | 2 | Non-Toxic | Non-Toxic | Active | 0.559 | 1.57 |  | Ki [6]: 45.7 µM; fold change (FC) [15]: 11; Activity [19]: Active; Activity [20]: inactive
O=C(O)C1=CN(CC/C=C/c2ccccc2-c2ccc(Cl)cc2Cl)CCC1 |  |  |  |  |  |  |  |  |  |  |  |  |  |  |  |  |  |  |  | 0.037 | Activity [25]: 73%; Activity [26]: 91%; IC50 [27]: 63.1 µM
CN(CCOCCn1c2ccccc2c2ccccc21)C(CCN)C(=O)NCc1ccccc1 (configuration not stated) | 31.7 | 30.9 | 15.8 | 15.1 | 25.1 | < 10 | 78.9 | 78.6 | 1.34 10^-4/min | 117 | 0.792 | 1.44 | 2.09 | 2 | Non-Toxic | Non-Toxic | inactive | 0.173 | 9.42 |  | Activity [28]: 71%; inhibition [29]: Active; inhibition [30]: Active; Activity [31]: Active; Activity [32]: Active; Activity [33]: inactive
O=C(O)C1=CN(CC/C=C/c2ccccc2-c2ccccc2)CCC1 |  |  |  |  |  |  |  |  |  |  |  |  |  |  |  |  |  |  |  | 0.062 | IC50 ([24]; read-out: pIC50 (converted)): 0.162 µM; IC50 [34]: 135 µM; IC50 [35]: 324 µM; IC50 [27]: 288 µM
